Laboratory results published in US12345641B2, “Fluorescence quenching immunoassay” (IDEXX Laboratories, Inc., priority 2020, dated 2025).

Columns and labels:
α-cortisol antibodies = test: Fluorescence quenching of cortisol-4-Fl with cortisol antibody (Example 28); type: binding
Protocol: The cortisol-4-FL was combined with various equivalents of various a-cortisol antibodies commercially available from HyTest (of Turku, Finland), Abcam (of Cambridge, United Kingdom), and Bio-Connect BV (Fitzgerald Industries) (of the Netherlands). The fluorescence was measured as a function of the ratio of antibody (Ab) to cortisol-4-FL. The results are depicted in FIG. 21.

streptavidin = streptavidin (Streptomyces avidinii, UniProt P22629); test: Fluorescence of Biotin-F or Biotin-ED in the presence of streptavidin (Example 19); type: binding; settings: saturation point, 1:1 molar ratio streptavidin to tracer
streptavidin, sequence (P22629 25-183, species assumed): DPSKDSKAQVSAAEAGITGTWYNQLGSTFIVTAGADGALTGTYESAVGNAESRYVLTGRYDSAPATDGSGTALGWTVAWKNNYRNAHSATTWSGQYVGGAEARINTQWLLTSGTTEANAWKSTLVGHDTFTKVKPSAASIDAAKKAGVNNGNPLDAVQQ
Protocol: Biotin-F or Biotin-ED (commercially available from Thermo Scientific of Waltham, MA) was dissolved in DMSO to provide a DMSO solution (8.5 μM). The structure of biotin ED is
The DMSO solution was then diluted with PBS to provide a solution having a Biotin-F or Biotin-ED concentration of 100 nM. 20 μL aliquots of the resulting Biotin-F or Biotin-ED solution in PBS was then added to the wells of a 96 well black assay plate. Solutions of streptavidin in PBS having a streptavidin concentration ranging from 0 to 100 nM were prepared and added (180 μL) to the Biotin-F or Biotin-ED solution in the plate. The plate was incubated for 30 min at room temperature and the fluorescence intensities then recorded.

[1] = system: anti-cefotaxime polyclonal antibody; test: Fluorescence of CEF-F with anti-cefotaxime antibody (Example 25); type: binding; settings: tracer and antibody 200 nM
Protocol: Beta lactam antibiotics conjugated to fluorescein (i.e., AMO-FITC, AMO-F, AMP-F, and CEF-F) in PBS (400 nM, 100 μL) were mixed with either anti-penicillin or anti-cefotaxime polyclonal antibody (400 nM, 100 μL, commercially available from Novus Biologicals, LLC of Centennial, CO) in the absence of and in the presence of free beta-lactam antibiotic (ampicillin (400 nM) was added to AMP-F and cefotaxime (400 nM) was added to CEF-F) in a 96 well black assay plate. […] The solutions were incubated at room temperature for 5 min and the fluorescence intensity measured.

[2] = system: Polyclonal anti-melamine antibody (Anti-Mel-Ab); test: Fluorescence of mixtures of melamine fluorescent tracers and anti-melamine antibody (Example 15); type: binding; settings: tracer 30 nM, Anti-Mel-Ab 0 to 300 nM, PBS, ex 490 nm/em 520 nm
Protocol: Various substituted fluorescent tracers wherein melamine is conjugated to fluorescein were dissolved in DMSO (1 mM) and diluted in phosphate buffered saline (PBS) (pH=7.3) to provide a melamine tracer solution (1.2 μM). The following melamine tracers were used:
Polyclonal anti-melamine antibody (Anti-Mel-Ab, 4.65 mg/ml, commercially available from Meridian Life Sciences Inc. (Biodesign) of Memphis, TN) was diluted in PBS and serially diluted to provide Anti-Mel-Ab solutions having Anti-Mel-Ab concentrations ranging from 0 to 300 nM. The melamine tracer solutions (5 μL) were mixed with each Anti-Mel-Ab solution (195 μl) in a 96 well black assay plate with non-binding surface (commercially available from Corning Inc. of Corning, NY) to provide solutions having different molar ratios of the Anti-Mel-Ab to the melamine tracer. The concentration of the melamine tracer was 30 nM. The plate was gently shaken for 30 min at room temperature. The fluorescence intensities of each solution was then measured using a fluorescence plate reader (Synergy 4 Microplate Reader, commercially available from BioTek Instruments, Inc. of Winooski, VT) using an excitation wavelength of 490 nm and reading the emission at 520 nm.
Unless otherwise indicated, an excitation wavelength of 490 nm and reading the emission at 520 nm were used throughout the examples. […]

Anti-Mel-Ab = test: Fluorescence of Mel-F and Anti-Mel-Ab in PBS, serum and diluted serum with and without melamine (Example 17); type: binding; settings: each solution: PBS, canine serum, serum diluted 1 in 10
Protocol: To a solution of Mel-F in PBS (1 μM, 6 μL) and to a mixture of Mel-F in PBS (1 μM, 6 μL) and Anti-Mel-Ab (1 μM, 6 μL) in the absence of and in the presence of melamine (2 μM, 6 μL) was added PBS, serum, or diluted serum (i.e., serum diluted 1 in 10 with PBS) to provide a final volume of 200 μL.

anti-T4 antibody = test: Maximum percentage fluorescence quenching of T2-F, T3-F, T4-F by anti-T4 antibody with and without quencher label (Example 27 table); type: binding
Protocol: In another experiment, tracer T2-F, T3-F, or T4-F was dissolved in DMSO to provide a DMSO solution at a tracer concentration of 1 mM. The DMSO solution was then diluted with phosphate buffered saline (“PBS”) to provide a stock solution of each tracer at a concentration of 10 μM. Monoclonal anti-T4-Mab or anti-T4-Mab conjugated to a quencher (Cy3-Ab, IRdyeQC1-Ab, Cy5-Ab, BHQ1-Ab) were serially diluted in PBS to provide solutions having an Anti-T4-Mab or anti-T4-Mab conjugated to quencher at concentration ranging from 0 to 2 μM. In a 96 well black assay plate containing the serially diluted Anti-T4-Mab or anti-T4-Mab conjugated to quencher (95 μL) was added the tracer T2-F, T3-F, or T4-F solution (5 μL), mixed well, and incubated for 30 min and the fluorescence intensities then recorded at an excitation wavelength of 485 nm and an emission wavelength of 520 nm. The results of maximum percentage fluorescence quenching for different tracers and quencher-modified antibodies are provided in the following Table: […]

anti-T4-Mab [3] = test: Fluorescence of T3-F and anti-T4-Mab after lyophilization (Example 22); settings: T3-F and/or anti-T4-Mab lyophilized to dryness, reconstituted in PBS or charcoal treated horse serum
Protocol: T3-F (1.7 mg) was dissolved in 0.85 ml DMSO to provide a stock solution (2 mM). The T3-F stock solution was then diluted in PBS to provide a 1 μM working solution that was separated into two vials (1 mL each). To the first vial was added PBS (9 mL) and to the second vial was added PBS (8.9 mL) plus anti-T4 Mab (15 μM, 0.1 mL). The vials were mixed well and incubated for 30 min at room temperature. The fluorescence intensities for each solution (200 μL) was determined. Aliquots of each solution (200 μL) were then placed into wells of a 96 well black assay plate and lyophilized to dryness. To the dried residues was added 200 μL PBS, horse serum that had been treated with charcoal (i.e., the serum was “charcoal stripped” by dialyzing the serum in PBS buffer containing charcoal for at least three buffer changes to remove small molecules from the serum), or horse serum that had been treated with charcoal containing T4 (10 μg/dL) and the plate incubated for 30 min at room temperature. Fluorescence intensities were then recorded again.

anti-T4-Mab [4] = test: Fluorescence of T3 tracers and anti-T4-Mab in the presence of T4 (Example 20); type: binding
Protocol: Similar solutions were prepared and the fluorescence measured except that the T3-F was replaced with T3-5-F, T3-E-F and T3-FITC.

[5] = system: Monoclonal anti-NT-proBNP antibody (ADX-15 Mab); test: Fluorescence quenching of canine NT-proBNP peptide-Fl/DFF conjugates by anti-NT-proBNP Mab and Ab-BHQ10 (Example 52); type: binding; settings: No = No Quenching
Protocol: NT-proBNP peptide-fluorescein (Fl) or -difluorofluorescein (DFF) conjugates were dissolved in DMSO (0.4 mM) and diluted with PBS to provide a stock solution (100 nM). Monoclonal anti-NT-proBNP antibody (ADX-15 Mab, IDEXX Laboratories Inc. of Westbrook, ME) (6.84 mg/ml) was serially diluted in PBS buffer to provide solutions having an antibody concentration ranging from 0 to 800 nM in PBS. In a 96 well black assay plate containing the serially diluted antibody solution (50 μL) was added the P1-Fl or P1-DFF, or other peptide-Fl or Peptide-DFF solution (50 μL), mixed well, incubated for 30 min and the fluorescence intensities recorded (excitation at 485 nm and emission at 520 nm). The results are provided in FIG. 47, FIG. 48, and Table 2.

anti-NT-proBNP-Mab = test: Canine NT-proBNP peptide P1 dose response in PBS and serum (Example 52); type: binding
Protocol: A mixture of NT-proBNP P1-Fl or P1-DFF in PBS (100 nM, 25 μL) and anti-NT-proBNP-Mab in PBS (100 nM, […]) were incubated at room temperature for 30 min in the wells of a 96 well black assay plate. A series of NT-proBNP peptide P1 standard solutions in PBS or charcoal stripped serum having peptide or protein concentrations ranging from 0 to 320 nM (50 μL) were then added to the mixtures of P1-Fl or P1-DFF and anti-NT-proBNP Mab in PBS. The plate was then incubated for 30 min at room temperature and the fluorescence intensities recorded at excitation at 485 nm and emission at 520 nm. The results are shown in FIG. 49, FIG. 50, FIG. 51, and FIG. 52.

anti-NT-proBNP Mab = test: Canine NT-proBNP full length protein dose response (Example 52); type: binding
Protocol: A mixture of NT-proBNP P1-Fl or P1-DFF in PBS (200 nM, 10 μL) and anti-NT-proBNP Mab in PBS (200 nM, 10 μL) were incubated at room temperature for 30 min in the wells of a 96 well black assay plate. A series of NT-proBNP peptide P1 standard solutions in PBS having NT-proBNP full length protein (lyophilized powder synthesized by New England Biolabs of Ipswich, MA) at concentrations ranging from 0 to 320 nM (80 μL) were then added to the mixtures of P1-Fl or P1-DFF and anti-NT-proBNP Mab in PBS. The plate was then incubated for 30 min at room temperature and the fluorescence intensities recorded at an excitation of 485 nm and an emission of 520 nm.

C[C@]12CCC(=NOCC(=O)NCc3c(O)ccc4c(-c5ccccc5C(=O)O)c5ccc(=O)cc-5oc34)C=C1CCC1C2[C@@H](O)C[C@@]2(C)C1CC[C@]2(O)C(=O)CO (stereo in doubt) [Cortisol-4-Fl]
fluorescence quenching on complex formation with cortisol antibody (α-cortisol antibodies): quenched

O=C(CCCCC1SCC2NC(=O)NC21)NCc1c(O)ccc2c(-c3ccccc3C(=O)O)c3ccc(=O)cc-3oc12 (stereo not shown) [Biotin-F, Biotin-Fluorescein]
quenching efficiency (streptavidin): 70%

CO/N=C(\C(=O)NC1C(=O)N2C(C(=O)NCc3c(O)ccc4c(-c5ccccc5C(=O)O)c5ccc(=O)cc-5oc34)=C(COC(C)=O)CSC12)c1csc(N)n1 (stereo not shown) [CEF-F, Cefotaxime-Fluorescein]
fluorescence quenching by anti-cefotaxime antibody [1]: quenched

Nc1nc(N)nc(NCc2c(O)ccc3c(-c4ccccc4C(=O)O)c4ccc(=O)cc-4oc23)n1 [Mel-F, Melamine-Fluorescein]
degree of fluorescence quenching compared to the other melamine tracers [2]: highest degree of quenching
fluorescence of Mel-F after quenching by Anti-Mel-Ab relative to original value (Anti-Mel-Ab): about one-half of the original value

O=C(O)c1ccccc1-c1c2ccc(=O)cc-2oc2c(CNC(Cc3cc(I)c(Oc4ccc(O)c(I)c4)c(I)c3)C(=O)O)c(O)ccc12 (stereo not shown) [T3-F]
Percentage of fluorescence quenching, BHQ1-Ab (anti-T4 antibody; anti-T4-Mab conjugated to BHQ1): 30%
Percentage of fluorescence quenching, Cy5-Ab (anti-T4 antibody; anti-T4-Mab conjugated to Cy5): 40%
Percentage of fluorescence quenching, Ab (anti-T4 antibody; anti-T4-Mab without quencher): 30%
assay performance after lyophilization of reagents (anti-T4-Mab [3]): effective
fluorescence quenching by anti-T4-Mab (anti-T4-Mab [4]; PBS, tracer and antibody equimolar): quenched
time to stable fluorescence signal (anti-T4-Mab [4]; quenching by anti-T4-Mab and recovery after addition of T4): ≤ 10 min

AEQLALEPLHRS [P1, canine NT-proBNP peptide]
Percentage Fluorescence Quenching, DFF Conjugate, Ab-BHQ10 ([5]; NT-proBNP peptide-difluorofluorescein conjugate, mAb-BHQ10, molar ratio of 1:1): 64.7%
Percentage Fluorescence Quenching, DFF Conjugate, Ab ([5]; NT-proBNP peptide-difluorofluorescein conjugate, molar ratio of 1:1): 63.3%
Percentage Fluorescence Quenching, F1 Conjugate, Ab ([5]; NT-proBNP peptide-fluorescein conjugate, Ab/Conjugate molar ratio of 1:1): 39.4%
Percentage Fluorescence Quenching, F1 Conjugate, Ab-BHQ10 ([5]; NT-proBNP peptide-fluorescein conjugate, mAb-BHQ10, molar ratio of 1:1): 40.2%
fluorescence intensity as a function of NT-proBNP peptide P1 concentration (anti-NT-proBNP-Mab; PBS, mixture of P1-Fl or P1-DFF with Ab or Ab-BHQ10): a dose response was observed
dose response of P1 peptide in serum (anti-NT-proBNP-Mab; charcoal stripped serum, P1-Fl or P1-DFF): produced a dose response

B1: full length NT-proBNP protein: canine NT-proBNP, SEQ ID NO: 14 (protein, listed as Canis familiaris)
chain: HPLGGRSPASEASEASEASGLWAVQELLGRLKDAVSELQAEQLALEPLHRSHSPAEAPEAGGTPRGVLAPHDSVLQALR
dose response of full length NT-proBNP spiked into charcoal stripped serum (anti-NT-proBNP Mab; P1-Fl/Ab or P1-DFF/Ab): dose response was also observed
fluorescence intensity as a function of full length NT-proBNP protein concentration (anti-NT-proBNP Mab; PBS, P1-Fl/Ab or P1-DFF/Ab at 1:1): a dose response was observed
